# Reference: patent US6642392B1 (priority 1997, dated 2003)
# Read-outs that look alike come from different tables or passages of the source.
# Experiments:
# Assay type in all cases: in vivo
# [1] = test system: Pyricularia oryzae; details: for Test C disease control rating: rice blast; for Test C disease control rating (100 = 100% disease control, 0 = no disease control): rice seedlings sprayed to run-off, inoculated the following day, rating relative to controls, unmarked compounds (standard test rate)
# [2] = test system: Puccinia recondita; assay: Test B: wheat leaf rust, preventive spray on wheat seedlings; details: for Test B disease control rating: wheat leaf rust; for Test B disease control rating (100 = 100% disease control, 0 = no disease control): wheat seedlings sprayed to run-off, inoculated the following day, rating relative to controls, unmarked compounds (standard test rate)
# Protocol: (§1) The resulting test suspensions were then used in the following tests. […]
# The test suspension was sprayed to the point of run-off on wheat seedlings. The following day the seedlings were inoculated with a spore suspension of Puccinia recondita (the causal agent of wheat leaf rust) and incubated in a saturated atmosphere at 20° C. for 24 h, and then moved to a growth chamber at 20° C. for 6 days, after which disease ratings were made.
# (§2) Results for Tests A-E are given in Table A. In the table, a rating of 100 indicates 100% disease control and a rating of 0 indicates no disease control (relative to the controls). A dash (-) indicates no test results. ND indicates disease control not determined due to phytotoxicity.
# [3] = test system: Botrytis cinerea; assay: Test E: gray mold, preventive spray on cucumber seedlings; details: for Test E disease control rating: gray mold on cucumber; for Test E disease control rating (100 = 100% disease control, 0 = no disease control): cucumber seedlings sprayed to run-off, inoculated the following day, rating relative to controls, unmarked compounds (standard test rate)
# Protocol: The resulting test suspensions were then used in the following tests. Spraying these 200 ppm test suspensions to the point of run-off on the test plants is the equivalent of a rate of 500 g/ha.
# The test suspension was sprayed to the point of run-off on cucumber seedlings. The following day the seedlings were inoculated with a spore suspension of Botrytis cinerea (the causal agent of gray mold on many crops) and incubated in a saturated atmosphere at 20° C. for 48 h, and moved to a growth chamber at 20° C. for 5 days, after which disease ratings were made.
# as §2
# [4] = test system: Eiysiphe graminis f. sp. tritici; assay: Test A: wheat powdery mildew, preventive spray on wheat seedlings; details: for Test A disease control rating: wheat powdery mildew; for Test A disease control rating (100 = 100% disease control, 0 = no disease control): wheat seedlings sprayed to run-off, inoculated the following day, rating relative to controls, unmarked compounds (standard test rate)
# Protocol: as §1
# The test suspension was sprayed to the point of run-off on wheat seedlings. The following day the seedlings were inoculated with a spore dust of Eiysiphe graminis f. sp. tritici, (the causal agent of wheat powdery mildew) and incubated in a growth chamber at 20° C. for 7 days, after which disease ratings were made.
# as §2
# [5] = test system: Phytophthora infestans; details: for Test D disease control rating: tomato late blight; for Test D disease control rating (100 = 100% disease control, 0 = no disease control): tomato seedlings sprayed to run-off, inoculated the following day, rating relative to controls, unmarked compounds (standard test rate)
# [6] = 100 = 100% disease control, 0 = no control, unmarked entries (standard test concentration)
# [7] = 100 = 100% disease control, 0 = no control relative to controls, unmarked entries (standard test concentration)
Structure (SMILES),"Test C disease control rating [1, 6]","Test B disease control rating [2, 6]","Test E disease control rating [3, 6]","Test A disease control rating [4, 7]","Test D disease control rating [5, 6]",Test C disease control rating ([1]; tested at 40 ppm),Test B disease control rating ([2]; tested at 40 ppm),Test E disease control rating ([3]; tested at 40 ppm),Test A disease control rating ([4]; tested at 40 ppm),Test D disease control rating ([5]; tested at 40 ppm),other results
"Cc1ccc(Cl)c(OC[C@@H](C)NC(=O)C(C#N)C(C)(C)C)c1 (single isomer, unassigned) [15b]",97%,0%,0%,0%,45%,,,,,,
CCC1(C(=O)NC(C)COc2c(Cl)ccc(Cl)c2Cl)C(C)C1(Cl)Cl (centres unmarked) [compound 117],,,,,,74%,0%,0%,83%,0%,
"C[C@H](COc1cc(F)ccc1Br)NC(=O)C(C#N)C(C)(C)C (single isomer, unassigned) [166b]",99%,0%,0%,0%,0%,,,,,,
C#CC(C)(C=C)C(C#N)C(=O)NC(C)COc1cc(Cl)ccc1F (mixture of isomers) [compound 302],,,,,,,,,,,"Test C disease control rating (100 = 100% disease control, 0 = no disease control) [1]: 99%; Test B disease control rating (100 = 100% disease control, 0 = no disease control) [2]: 0%; Test E disease control rating (100 = 100% disease control, 0 = no disease control) [3]: 0%; Test A disease control rating (100 = 100% disease control, 0 = no disease control) [4]: 0%; Test D disease control rating (100 = 100% disease control, 0 = no disease control) [5]: 24%"
C#CC(C)(C)C(C#N)C(=O)NC(C)COc1cc(F)ccc1OC(F)F (mixture of isomers) [compound 295],,,,,,,,,,,"Test C disease control rating (100 = 100% disease control, 0 = no disease control) [1]: 100%; Test B disease control rating (100 = 100% disease control, 0 = no disease control) [2]: 0%; Test E disease control rating (100 = 100% disease control, 0 = no disease control) [3]: 0%; Test A disease control rating (100 = 100% disease control, 0 = no disease control) [4]: 0%; Test D disease control rating (100 = 100% disease control, 0 = no disease control) [5]: 0%"
C=CC(C)(CF)C(C#N)C(=O)NC(C)COc1cc(Cl)ccc1Cl (mixture of isomers) [compound 219],,,,,,,,,,,"Test C disease control rating (100 = 100% disease control, 0 = no disease control) [1]: 99%; Test B disease control rating (100 = 100% disease control, 0 = no disease control) [2]: 86%; Test E disease control rating (100 = 100% disease control, 0 = no disease control) [3]: 0%; Test A disease control rating (100 = 100% disease control, 0 = no disease control) [4]: 86%; Test D disease control rating (100 = 100% disease control, 0 = no disease control) [5]: 96%"
"CC(COc1ccc(Br)cc1)NC(=O)C(C#N)C(C)(C)C (single isomer, unassigned) [10a]",86%,27%,0%,0%,23%,,,,,,
CCC1(C(=O)NCC=Cc2ccccc2F)C(C)C1(Cl)Cl (centres unmarked) [compound 157],,,,,,97%,0%,0%,0%,0%,
"C[C@H](COc1ccc(F)c(Cl)c1)NC(=O)C(C#N)C(C)(C)C (single isomer, unassigned) [183b]",94%,28%,69%,86%,35%,,,,,,
"C[C@H](COc1cc(F)cc(F)c1F)NC(=O)C(C#N)C(C)(C)C (single isomer, unassigned) [168a]",74%,0%,58%,76%,0%,,,,,,
"C[C@H](COc1cccc(F)c1)NC(=O)C(C#N)C(C)(C)C (single isomer, unassigned) [3d]",100%,0%,0%,92%,99%,,,,,,
Cc1ccccc1OCC(C)NC(=O)C(C#N)C(C)(C)C (mixture of isomers) [compound 19],97%,0%,0%,0%,0%,,,,,,
"CCC1(C(=O)NC(C)C=Cc2cc(F)ccc2F)C(C)C1(Cl)Cl (single isomer, unassigned) [267a]",,,,,,,,,,,"Test C disease control rating (100 = 100% disease control, 0 = no disease control) [1]: 97%; Test B disease control rating (100 = 100% disease control, 0 = no disease control) [2]: 0%; Test E disease control rating (100 = 100% disease control, 0 = no disease control) [3]: 55%; Test A disease control rating (100 = 100% disease control, 0 = no disease control) [4]: 78%; Test D disease control rating (100 = 100% disease control, 0 = no disease control) [5]: 0%"
"C[C@H](COc1cc(F)c(Cl)cc1F)NC(=O)C(C#N)C(C)(C)C (single isomer, unassigned) [173b]",90%,0%,0%,0%,91%,,,,,,
CCC1(C(=O)NCC=Cc2ccccc2Cl)C(C)C1(Cl)Cl (centres unmarked) [compound 158],,,,,,52%,0%,0%,0%,0%,
"C[C@H](COc1cccc(F)c1F)NC(=O)C(C#N)C(C)(C)C (single isomer, unassigned) [26a]",97%,28%,0%,38%,51%,,,,,,
CC(COc1ccccc1CF)NC(=O)C(C#N)C(C)(C)C (mixture of isomers) [compound 175],,,,,,74%,0%,0%,0%,33%,
CCC1(C(=O)NC(C)COc2cc(Cl)cc(Cl)c2Cl)C(C)C1(Cl)Cl (centres unmarked) [compound 116],,,,,,0%,0%,0%,21%,0%,
CCC1(C(=O)NC(C)COc2ccc(C)cc2Cl)C(C)C1(Cl)Cl (centres unmarked) [compound 126],,,,,,73%,0%,0%,0%,0%,
CC(COc1ccccc1C(C)C)NC(=O)C(C#N)C(C)(C)C (mixture of isomers) [compound 22],100%,0%,0%,0%,0%,,,,,,
"C[C@H](COc1cc(F)ccc1F)NC(=O)C(C#N)C(C)(C)C (single isomer, unassigned) [28b]",100%,28%,0%,86%,96%,,,,,,
CCC1(C(=O)NC(C)COc2ccccc2CF)C(C)C1(Cl)Cl (mixture of isomers) [compound 92],,,,,,0%,0%,0%,60%,0%,
